Patent US11304949B2, “Treatment of hidradenitis suppurativa using JAK inhibitors” (Incyte Corporation, priority 2018, dated 2022)

Assays:
[1] = molecular target: human JAK1 (a.a. 837-1142) (Homo sapiens, UniProt P23458); test: In vitro JAK kinase assay (HTRF), JAK1; assay type: biochemical; settings: 1 mM ATP
[2] = system: human JAK1 (a.a. 837-1142); test: In vitro JAK kinase assay (HTRF), JAK1; assay type: biochemical; settings: IC50 ratio at 1 mM ATP
[3] = system: Transformed human keratinocyte (HaCaT) cells stimulated with TNFα and IFNγ; test: JAK inhibitors in TNFα/IFNγ stimulated keratinocytes, inflammatory mediators in media (ProCarta Multiplex Immunoassay); settings: mean ± 1 standard error
[4] = system: Transformed human keratinocyte (HaCaT) cells stimulated with TNFα and IFNγ; test: JAK inhibitors in TNFα/IFNγ stimulated keratinocytes, gene expression (QuantiGene Plex); settings: 24 hours, normalized to HPRT1, mean ± standard error
[5] = TNFα (25 ng/mL) and IFNγ (25 ng/mL) stimulation, drug 25 nM
[6] = TNFα (25 ng/mL) and IFNγ (25 ng/mL) stimulation, drug 50 nM
[7] = TNFα (25 ng/mL) and IFNγ (25 ng/mL) stimulation, drug 100 nM
[8] = TNFα (25 ng/mL) and IFNγ (25 ng/mL) stimulation, drug 200 nM
[9] = TNFα (25 ng/mL) and IFNγ (25 ng/mL), drug 25 nM
[10] = TNFα (25 ng/mL) and IFNγ (25 ng/mL), drug 50 nM
[11] = TNFα (25 ng/mL) and IFNγ (25 ng/mL), drug 100 nM
[12] = TNFα (25 ng/mL) and IFNγ (25 ng/mL), drug 200 nM

SMILES: N#CCC(C1CCN(c2cccc(Cl)n2)C1)n1cc(-c2ncnc3[nH]ccc23)cn1 (single isomer, unassigned) [Compound 6, 3-[1-(6-chloropyridin-2-yl)pyrrolidin-3-yl]-3-[4-(7H-pyrrolo[2,3-d]pyrimidin-4-yl)-1H-pyrazol-1-yl]propanenitrile]
- IC50 [1]: < 10 nM
- JAK2/JAK1 [2]: >10

SMILES: N#CCC1(n2cc(-c3ncnc4[nH]ccc34)cn2)CN(C2CCN(C(=O)Nc3ccc(F)cc3C(F)(F)F)CC2)C1 [Compound 2, 4-{3-(Cyanomethyl)-3-[4-(7H-pyrrolo[2,3-d]pyrimidin-4-yl)-1H-pyrazol-1-yl]azetidin-1-yl}-N-[4-fluoro-2-(trifluoromethyl)phenyl]piperidine-1-carboxamide]
- IC50 [1]: < 10 nM
- JAK2/JAK1 [2]: >10

SMILES: N#CCC1(n2cc(-c3ncnc4[nH]ccc34)cn2)CN(C2CCN(C(=O)c3ccnc(C(F)(F)F)n3)CC2)C1 [Compound 3, [3-[4-(7H-pyrrolo[2,3-d]pyrimidin-4-yl)-1H-pyrazol-1-yl]-1-(1-{[2-(trifluoromethyl)pyrimidin-4-yl]carbonyl}piperidin-4-yl)azetidin-3-yl]acetonitrile]
- IC50 [1]: < 10 nM
- JAK2/JAK1 [2]: >10

SMILES: Cc1n[nH]c(C)c1-c1cnn(C2(CC#N)CN(c3cc(F)c(C(=O)N[C@@H](C)C(F)(F)F)cc3F)C2)c1 [Compound 4]
- IL-1α concentration in media [3, 5]: 7.74 ± 0.36 pg/mL
- IL-6 concentration in media [3, 5]: 774.87 ± 31.09 pg/mL
- IP-10/CXCL10 concentration in media [3, 5]: 3999.39 ± 370.53 pg/mL
- MIP1α concentration in media [3, 5]: 101.71 ± 3.84 pg/mL
- RANTES concentration in media [3, 5]: 216.88 ± 13.45 pg/mL
- IL-1α concentration in media [3, 6]: 7.01 ± 0.39 pg/mL
- IL-6 concentration in media [3, 6]: 710.89 ± 36.7 pg/mL
- IP-10/CXCL10 concentration in media [3, 6]: 3665.2 ± 277.11 pg/mL
- MIP1α concentration in media [3, 6]: 104.54 ± 6.56 pg/mL
- RANTES concentration in media [3, 6]: 201.93 ± 15.44 pg/mL
- IL-1α concentration in media [3, 7]: 7.27 ± 0.47 pg/mL
- IL-6 concentration in media [3, 7]: 690.4 ± 35.25 pg/mL
- IP-10/CXCL10 concentration in media [3, 7]: 3860.41 ± 323.05 pg/mL
- MIP1α concentration in media [3, 7]: 96.4 ± 4.18 pg/mL
- RANTES concentration in media [3, 7]: 207.79 ± 17.38 pg/mL
- IL-1α concentration in media [3, 8]: 6.45 ± 0.38 pg/mL
- IL-6 concentration in media [3, 8]: 621.79 ± 33.44 pg/mL
- IP-10/CXCL10 concentration in media [3, 8]: 3835.78 ± 304.58 pg/mL
- MIP1α concentration in media [3, 8]: 98.72 ± 3.87 pg/mL
- RANTES concentration in media [3, 8]: 189.62 ± 13.78 pg/mL
- IL-1α concentration in media ([3]; no stimulation, drug 200 nM): 0.30 ± 0.05 pg/mL
- IL-6 concentration in media ([3]; no stimulation, drug 200 nM): 28.79 ± 2.91 pg/mL
- IP-10/CXCL10 concentration in media ([3]; no stimulation, drug 200 nM): 20.23 ± 0.48 pg/mL
- MIP1α concentration in media ([3]; no stimulation, drug 200 nM): 2.90 ± 0.21 pg/mL
- RANTES concentration in media ([3]; no stimulation, drug 200 nM): 8.61 ± 0.52 pg/mL
- IL-1α MFI [4, 9]: 1370.52 ± 35.28
- IL-6 MFI [4, 9]: 135.32 ± 3.36
- JAK1 MFI [4, 9]: 206.29 ± 6.84
- JAK2 MFI [4, 9]: 114.94 ± 2.16
- JAK3 MFI [4, 9]: 1.02 ± 0.19
- STAT1 MFI [4, 9]: 3111.17 ± 182.20
- STAT3 MFI [4, 9]: 1557.84 ± 58.15
- STAT4 MFI [4, 9]: 5.65 ± 0.44
- STAT5A MFI [4, 9]: 22.82 ± 1.77
- STAT6 MFI [4, 9]: 1020.89 ± 23.57
- TYK2 MFI [4, 9]: 283.97 ± 8.59
- IL-1α MFI [4, 10]: 1308.7 ± 45.12
- IL-6 MFI [4, 10]: 128.14 ± 6.83
- JAK1 MFI [4, 10]: 194.2 ± 8.24
- JAK2 MFI [4, 10]: 107.16 ± 2.86
- JAK3 MFI [4, 10]: 0.99 ± 0.16
- STAT1 MFI [4, 10]: 3058.64 ± 154.86
- STAT3 MFI [4, 10]: 1519.61 ± 69.92
- STAT4 MFI [4, 10]: 5.41 ± 0.33
- STAT5A MFI [4, 10]: 20.71 ± 1.77
- STAT6 MFI [4, 10]: 982.62 ± 14.34
- TYK2 MFI [4, 10]: 273.68 ± 7.44
- IL-1α MFI [4, 11]: 1194.29 ± 12.27
- IL-6 MFI [4, 11]: 112.13 ± 3.37
- JAK1 MFI [4, 11]: 193.28 ± 4.55
- JAK2 MFI [4, 11]: 95.51 ± 3.13
- JAK3 MFI [4, 11]: 0.99 ± 0.15
- STAT1 MFI [4, 11]: 3035.33 ± 122.14
- STAT3 MFI [4, 11]: 1457.24 ± 54.48
- STAT4 MFI [4, 11]: 5.32 ± 0.46
- STAT5A MFI [4, 11]: 18.44 ± 1.85
- STAT6 MFI [4, 11]: 943.66 ± 25.99
- TYK2 MFI [4, 11]: 266 ± 6.82
- IL-1α MFI [4, 12]: 1151.31 ± 20.01
- IL-6 MFI [4, 12]: 101.17 ± 2.91
- JAK1 MFI [4, 12]: 182.86 ± 4.07
- JAK2 MFI [4, 12]: 91.17 ± 2.15
- JAK3 MFI [4, 12]: 0.85 ± 0.15
- STAT1 MFI [4, 12]: 2984.14 ± 163.4
- STAT3 MFI [4, 12]: 1483.1 ± 51.73
- STAT4 MFI [4, 12]: 5.04 ± 0.36
- STAT5A MFI [4, 12]: 17.64 ± 1.46
- STAT6 MFI [4, 12]: 966.51 ± 12.3
- TYK2 MFI [4, 12]: 263.49 ± 5.05
- IL-1α MFI ([4]; no stimulation, drug 200 nM): 88.72 ± 5.90
- IL-6 MFI ([4]; no stimulation, drug 200 nM): 4.98 ± 0.28
- JAK1 MFI ([4]; no stimulation, drug 200 nM): 177.67 ± 11.84
- JAK2 MFI ([4]; no stimulation, drug 200 nM): 25.25 ± 1.04
- JAK3 MFI ([4]; no stimulation, drug 200 nM): 0.68 ± 0.17
- STAT1 MFI ([4]; no stimulation, drug 200 nM): 554.39 ± 11.80
- STAT3 MFI ([4]; no stimulation, drug 200 nM): 746.17 ± 16.73
- STAT4 MFI ([4]; no stimulation, drug 200 nM): 4.28 ± 0.61
- STAT5A MFI ([4]; no stimulation, drug 200 nM): 1.75 ± 0.44
- STAT6 MFI ([4]; no stimulation, drug 200 nM): 762.04 ± 9.44
- TYK2 MFI ([4]; no stimulation, drug 200 nM): 217.28 ± 14.28

SMILES: N#CCC(C1CCN(c2nc3cccnc3o2)C1)n1cc(-c2ncnc3[nH]ccc23)cn1 (stereo not shown) [Compound 7, 3-(1-[1,3]oxazolo[5,4-b]pyridin-2-ylpyrrolidin-3-yl)-3-[4-(7H-pyrrolo[2,3-d]pyrimidin-4-yl)-1H-pyrazol-1-yl]propanenitrile]
- IC50 [1]: < 10 nM
- JAK2/JAK1 [2]: >10

SMILES: N#CCC(CN1CCN(C(=O)c2ccc(C#N)cc2F)CC1)n1cc(-c2ncnc3[nH]ccc23)cn1 (stereo not shown) [Compound 8, 4-[(4-{3-cyano-2-[4-(7H-pyrrolo[2,3-d]pyrimidin-4-yl)-1H-pyrazol-1-yl]propyl}piperazin-1-yl)carbonyl]-3-fluorobenzonitrile]
- IC50 [1]: < 10 nM
- JAK2/JAK1 [2]: >10

SMILES: N#CCC(CN1CCN(C(=O)c2ccc(C#N)cc2F)CC1)n1ccc(-c2ncnc3[nH]ccc23)c1 (stereo not shown) [Compound 9, 4-[(4-{3-cyano-2-[3-(7H-pyrrolo[2,3-d]pyrimidin-4-yl)-1H-pyrrol-1-yl]propyl}piperazin-1-yl)carbonyl]-3-fluorobenzonitrile]
- IC50 [1]: < 10 nM
- JAK2/JAK1 [2]: >10

SMILES: N#CC[C@]1(n2cc(-c3ncnc4[nH]ccc34)cn2)C[C@H](N2CCN(C(=O)c3ccnc(C(F)(F)F)n3)CC2)C1 [Compound 10, [trans-1-[4-(7H-pyrrolo[2,3-d]pyrimidin-4-yl)-1H-pyrazol-1-yl]-3-(4-{[2-(trifluoromethyl)pyrimidin-4-yl]carbonyl}piperazin-1-yl)cyclobutyl]acetonitrile]
- IC50 [1]: < 10 nM
- JAK2/JAK1 [2]: >10
